One data set deals with T1, PtCAL-1a/PtCAL-2a (Phlegmariurus tetrastichus, UniProt P0DXL1+P0DXL3).
T1 construct: N-terminal signal peptide[58], which would be cleaved during processing and trafficking of these proteins; made in house; host or cells: Nicotiana benthamiana leaves (Agrobacterium transient co-expression, pEAQ-HT), concentrated apoplast extract
T1 sequence (P0DXL1 22-280): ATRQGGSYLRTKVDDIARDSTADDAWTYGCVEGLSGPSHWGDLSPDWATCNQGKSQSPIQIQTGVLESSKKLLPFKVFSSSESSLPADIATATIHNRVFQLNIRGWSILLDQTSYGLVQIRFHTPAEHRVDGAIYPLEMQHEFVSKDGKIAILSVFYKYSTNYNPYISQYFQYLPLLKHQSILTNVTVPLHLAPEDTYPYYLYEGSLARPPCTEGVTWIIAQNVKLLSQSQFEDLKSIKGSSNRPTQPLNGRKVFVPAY
T1 sequence (P0DXL3 24-284): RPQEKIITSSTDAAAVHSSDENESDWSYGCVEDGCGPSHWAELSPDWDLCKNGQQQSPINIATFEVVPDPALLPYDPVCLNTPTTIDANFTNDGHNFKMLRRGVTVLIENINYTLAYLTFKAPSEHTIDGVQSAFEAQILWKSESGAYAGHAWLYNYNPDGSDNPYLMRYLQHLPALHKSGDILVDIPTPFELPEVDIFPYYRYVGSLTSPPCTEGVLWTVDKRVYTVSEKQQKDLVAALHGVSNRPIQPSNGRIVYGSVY
The experiment in a line: In vitro reactions with apoplastic PtCAL-1a/PtCAL-2a (formation of 9, decarboxylation of 3, Zn chelator). The format is biochemical. An excerpt: The three CAL proteins identified in this study have predicted N-terminal signal peptides, which were identified using the TargetP-2.0 server (https://services.healthtech.dtu.dk/service.php?TargetP-2.0)[58]. […] To assess this possibility, CAL genes with or without C-terminal 6xHis tags were transiently expressed in N. benthamiana, as described above. Each CAL gene was expressed individually; also, PtCAL-1a and PtCAL-2a were transiently co-expressed in the same leaf because we had found them to cofunction in Lycopodium alkaloid biosynthesis. At 4 days after Agrobacterium infiltration, apoplast protein extracts were isolated using the infiltration–centrifugation method, much as previously described. Two leaves per reaction were excised from the plant and submerged in ice-cold apoplast extraction buffer (100 mM MES, 300 mM NaCl, pH 5.5) in an open-capped 50 ml Falcon tube and these tubes were placed in a plastic vacuum chamber attached to a Welch Model 2025 vacuum pump. The chamber was brought down to full vacuum and after 2 min at this pressure, the vacuum was slowly released to allow for buffer to infiltrate the leaf apoplastic space. Buffer-infiltrated leaves were carefully removed from the Falcon tubes, blotted dry with paper towels and were then rolled into Parafilm and placed in a plungerless 5 ml plastic syringe. The syringe was placed in a 15 ml Falcon tube and this was then centrifuged at 1,000g and 4 °C for 10 min to collect apoplast extract. The resulting extract was centrifuged at 10,000g and 4 °C for 15 min to pellet any larger cellular debris and the supernatant was concentrated using an Amicon Ultra-4 Centrifugal Filter Unit (10 kDA MWCO, MilliporeSigma UFC501024). Protein concentrations were measured using the BIO-RAD Protein Assay or Bradford assay (Abcam 119216) and adjusted with apoplast extraction buffer to a final concentration between 0.5 and 1.5 mg ml^−1. Aliquots of the extracts were snap frozen in liquid nitrogen and stored at −80 °C.
Reactions with CAL-enriched apoplast were routinely performed in low-pH potassium phosphate buffer (50 mM potassium phosphate, 100 mM NaCl, pH 5.9) at a volume of 20 µl. For PtCAL-1a/PtCAL-2a, these reactions contained approximately 1.4 µg of apoplast protein for each CAL (final concentration of 0.07 µg µl^−1). Control reactions used apoplast from leaves expressing only one CAL or with apoplast generated from GFP-expression N. benthamiana leaves. The requisite substrates for this reaction were generated through the activities of in vitro PtPIKS-1 and PtCYP782C1 enzyme reactions. […]. To generate 3 and 4 as potential substrates, 1 µg of previously purified PtPIKS-1 enzyme[23] and 150 µM 1 and 300 µM malonyl-CoA were added directly to the CAL reaction mixtures. After thorough mixing, reactions were incubated at room temperature. An alternative route for producing 3 and 4 independently of thioester intermediates was achieved by mixing stocks of 1 (10 mM in water) and 2 (10 mM in water; always prepared fresh to minimize compound decomposition) in equal proportion, followed by incubation at room temp for 1–2 h, as these two substrates can non-enzymatically condense to yield 3 (which can spontaneously decarboxylate to produce 4). A 2 µl aliquot of this mixture was then added as a component of the PtCAL-1a/PtCAL-2a enzyme reaction (20 µl total reaction volume) in addition to the PtCYP782C1 microsomal reaction mixture. After predesignated incubation times, reactions were quenched by diluting tenfold into ACN with 0.1% formic acid.
To evaluate the potential decarboxylation of β-keto acid substrates by PtCAL-1/PtCAL-2 and PtCAL-3, only 3 or 2, respectively, were added as substrate. PtCAL-1/PtCAL-2 reactions were quenched by diluting aliquots tenfold into ACN with 0.1% formic acid and were subsequently analysed through HILIC LC–MS. PtCAL-3 reactions were quenched by mixing aliquots with an equal volume of water with 0.2% formic acid and were then analysed through C18 LC–MS. […]

Data set [1] is described as follows: Stability of PtCYP782C1 products in leaf extract incubated at room temperature. Type of data set: physicochemical. Particulars: samples incubated at room temperature for 1 h. The procedure: The production of (2S, 4S)-6 and (2S, 4R)-6 was consistent with our hypothesis for elimination-mediated formation of the proposed diene (8). Because formation of 8 would require oxidation of the O-acetylated substrate(s), we next screened CYP and 2OGD family enzymes found in cluster131. […] This coincided with the presence of two new compounds: one that corresponded to a single oxidation (desaturation) of the O-acetylated substrate (7, [M + H]^+ = m/z 184.1332, retention time 1.86 min), as well as another which shared the same exact mass as 8 ([M + H]^+ = m/z 124.1121, retention time 1.93 min). […] Although this limited our ability to access authentic standards, tandem mass spectrometry (MS/MS or MS^2) analysis supported the proposed structures of 7 and 8 and ultraviolet (UV) analysis of 8 corroborated the presence of the predicted α,β-unsaturated imine in this molecule[34] (Extended Data Fig. 2c,d). […]
Extended Data Fig. 2 Functional characterization of PtCYP782C1. a) Transient expression of PtCYP782C1 with a biosynthetic module for the production of 6 diastereomers (PtLDC, PtCAO, PtPIKS, PtSDR-1 or PtSDR-2 and PtACT-1) in N. benthamiana. […] Product abundance is calculated as the integration of the peak generated in the EIC for each mass ion. g) Relative activity of PtCYP782C1 microsomes at varying pH, as determined via production of both 7 and 8. […]

Another data set relates to several insect species. Further details: method as in PMID 11804518. Particulars: cited from earlier work.

Several values for one entry are separate records, joined by “and”; a condition that tells them apart may be missing. Identical values can stand only once.

In the case of `O=C(O)CC(=O)CC1CCCCN1` (centres unmarked) [compound 3, 4-(2-piperidyl)acetoacetic acid], the “ratio of 4 ion abundance (m/z 142.1226) to that of 3 (m/z 186.1125)” value is 31.4694 and 27.1428 and 38.6295 at PtCAL-1a/PtCAL-2a (PtCAL-1a/PtCAL-2a +3 (ED 4h)); 66.6374 and 57.9149 and 54.0594 at PtCAL-1a/PtCAL-2a (PtCAL-1a/PtCAL-2a +3, 0.25 hrs (ED 4g)); 59.9271 and 67.8727 and 55.7877 at PtCAL-1a/PtCAL-2a (PtCAL-1a/PtCAL-2a +3, 0.5 hrs (ED 4g)); 70.6508 and 59.4497 and 51.4084 at PtCAL-1a/PtCAL-2a (PtCAL-1a/PtCAL-2a +3, 1 hrs (ED 4g)); 57.1082 and 53.747 and 49.4186 on PtCAL-1a/PtCAL-2a (PtCAL-1a/PtCAL-2a +3, 2 hrs (ED 4g)).

Regarding `CC(=O)OC(C)CC1=NCCCC1` (centres unmarked) [compound 7], in data set [1], the “stability of compound in sample” value is on record as “almost entirely lost”.

In the case of `C/C=C/C1=NCCCC1` [compound 8], the “stability of compound in sample” value in data set [1] is given as “almost entirely lost”.

On to `C/C=C1\[C@H]2C=C(C)C[C@]1(N)c1ccc(=O)[nH]c1C2` [compound 17, huperzine A], for which the antifeedant activity result with several insect species is listed as “antifeedant activity”.

The values above are taken from publication PMC10700139 (Nature, 2023).
